From patent US10603298B2, “Succinate dehydrogenase inhibitors (SDHi's)” (Medical Research Council, priority 2014, dated 2020)

Columns and labels:
[1] = system: complex II; conditions: cited from earlier work; for concentration to achieve half-maximal inhibition: Drose et al 2011
[2] = system: ischemia-reperfusion injury; conditions: chemical preconditioning, rats; Hu et al, Hirata et al; cited from earlier work
[3] = system: succinate accumulation in the ischaemic myocardium; test: Succinate accumulation in the ischaemic myocardium in vivo (LC-MS); conditions: i.v. infusion in vivo, mouse; 30 min ischaemia
Description: For the in vivo heart IR model an open-chest, in situ heart model was used^31,32. Male mice (8-10 weeks; Charles River Laboratories, UK) were anaesthetised with sodium pentobarbital (70 mg/kg intraperitoneally (i.p.)), intubated endotracheally and ventilated with 3 cm H2O positive-end expiratory pressure. Adequacy of anaesthesia was monitored using corneal and withdrawal reflexes. Ventilation frequency was kept at 110 breaths per minute with tidal volume between 125-150 μL. A thoracotomy was performed and the heart exposed by stripping the pericardium. A prominent branch of the left anterior descending coronary artery (LAD) was surrounded by a 7-0 Prolene suture that was then passed through a small plastic tube. Ischaemia was induced by tightening the tubing against the heart surface. To assess metabolites during IR in vivo, mice were divided into three groups: 30 min ischaemia, 30 min ischaemia plus 5 min reperfusion and 30 min sham-operation in which the suture was placed but the LAD was not occluded. At the end of each protocol tissue was removed from the at risk and peripheral areas of the heart, selected visually by comparing white versus red tissue, and snap-frozen in liquid nitrogen. Sham-operated tissue was removed from the presumed risk zone. Infarct size was assessed after 30 min of ischaemia followed by 120 min reperfusion using 2% triphenyltetrazolium chloride staining and is expressed as a percentage of the risk zone^33. […] For the LC separation, column A was Sequant Zic-Hilic (150 mm×4.6 mm, internal diameter 3.5 μm) with a guard column (20 mm×2.1 mm 3.5 μm) from HiChrom, Reading, UK. […] (150 mm×2.1 mm i.d. 3.5 μm) with guard column (20 mm×2.1 mm i.d. […]) from HiChrom, Reading, UK. […] Spectra were analysed using both targeted and untargeted approaches. For the targeted approach spectra were analysed using XCalibur Qual Browser and XCalibur Quan Browser softwares (Thermo Scientific) by referencing to an internal library of compounds. […] The arrays of spectra were then statistically analysed using the functions explore.data and univariate of the R package mum a^40.

[4] = system: heart, simulated ischemia-reperfusion injury; conditions: Wojtovich et al 2009; mKATP channel dependent mechanism; cited from earlier work
[5] = system: ischaemic succinate accumulation (GABA shunt); test: Ex vivo perfused mouse heart, no flow ischaemia: succinate abundance (LC-MS); conditions: 30 min no flow ischaemia, vigabatrin 100, 300, 700 μM
Description: FIG. 9: Effect of GABA transaminase inhibition by vigabatrin on GABA shunt and CAC metabolites in the ischaemic myocardium. Perfused mouse hearts were subjected to 30 min no flow ischaemia±continuous infusion of vigabatrin (Vig; 100, 300, and 700 μM) 10 min prior to ischaemia. Heart tissue was snap frozen and a, GABA and b, succinate abundance quantified relative to normoxic levels by LC-MS. n=3, * p<0.05.
Mice were heparinised (200 U i.p.) and anaesthetised with sodium pentobarbital (100 mg/kg i.p.). […]
Equal amounts wet weight murine tissue were lysed in 250 μL extraction solution (ES; 30% acetonitrile, 50% methanol and 20% water) per 10 mg tissue in Precellysis 24 vials, following the manufacturer's instructions. […] For the LC separation, column A was Sequant Zic-Hilic (150 mm×4.6 mm, internal diameter 3.5 μm) with a guard column (20 mm×2.1 mm 3.5 μm) from HiChrom, Reading, UK. […] Gradient: 0-3 min 80% B, 25 min 20% B, 26 min 80% B, 36 min 80% B. Column B was sequant Zic-pHilic (150 mm×2.1 mm i.d. 3.5 μm) with guard column (20 mm×2.1 mm i.d. 3.5 Mm) from HiChrom, Reading, UK. […] Spectra were analysed using both targeted and untargeted approaches. For the targeted approach spectra were analysed using XCalibur Qual Browser and XCalibur Quan Browser softwares (Thermo Scientific) by referencing to an internal library of compounds. […]

Q: With `O=C(O)CC[N+](=O)[O-]` [3-nitropropionate] as the molecule, how does the “reversibility of complex II inhibition” value [1] read?
A: irreversible

Q: What about the ischemia-reperfusion injury [2] of the same molecule?
A: reduced ischemia-reperfusion injury

Q: Which “succinate accumulation in the ischaemic myocardium” value [3] does the source give for `NC(=O)c1ncn([C@@H]2O[C@H](CO)[C@@H](O)[C@H]2O)c1N` [AICAR, 5-amino-1-β-D-ribofuranosyl-imidazole-4-carboxamide] here?
A: decreased ischaemic succinate levels

Q: With `NOCC(=O)O` [AOA, aminooxyacetate] as the molecule, how does the “succinate accumulation in the ischaemic myocardium” value [3] read?
A: decreased ischaemic succinate levels

Q: For `O=C(CC(=O)C(F)(F)F)c1cccs1` [TTFA, 2-thenoyltrifluoroacetone], which “reversibility of complex II inhibition” value [1] is on record?
A: irreversible

Q: For `COc1[nH]c(=O)c(C(=O)[C@@H](C)C[C@H](C)[C@@H](Cl)CCl)c(O)c1OC` [atpennin A5], which “concentration to achieve half-maximal inhibition” value [1] is on record?
A: nanomolar levels

Q: And the “reversibility of complex II inhibition” value [1]?
A: irreversible

Q: And the “protection of the heart against simulated ischemia-reperfusion injury” value [4]?
A: protects the heart against simulated ischemia-reperfusion injury

Q: With `O=C(O)CC(=O)O` [malonate] as the molecule, how does the “concentration to achieve half-maximal inhibition” value [1] read?
A: millimolar levels

Q: For `C=CC(N)CCC(=O)O` (stereo not shown) [vigabatrin], which ischaemic succinate accumulation [5] is on record?
A: did not decrease ischaemic succinate accumulation
